From patent publication US20040010026A1, “(R) 2-(4-amidinophenylaminomethyl)-1-methyl-5-[1-(carboxymethylamino)-1 (pyrrolidinocarbonyl)-ethyl]-benzimidazole, the monohydrochloride thereof, preparation thereof and the use as pharmaceutical composition” (Boehringer Ingelheim Pharma GmbH & Co. KG, priority 2002, published 2004)
Structures can show the parent of a compound that is named as a salt.

Key:
[1] = Solid stress stability of the free base and of the corresponding monohydrochloride; format: physicochemical; settings: for decomposition under temperature and relative humidity stress / decomposition under temperature stress / decomposition under light stress: solid, open glass dish; for decomposition under temperature and relative humidity stress: 70° C., approx. 90% relative humidity, 3 days; for decomposition under temperature stress: 105° C., 24 hours; for decomposition under light stress: Suntester xenon lamp, 22-24 hours
Text: Solid stress stability data of the free base and of the corresponding monohydrochloride

[2] = Solubility in physiologically acceptable solvents; format: physicochemical

Row | decomposition under temperature and relative humidity stress [1] | decomposition under temperature stress [1] | decomposition under light stress [1] | stability (general statement) [1] | solubility [2] | Structure (SMILES)
1 | approx. 4% | approx. 1% | approx. 1% |  |  | Cn1c(CNc2ccc(C(=N)N)cc2)nc2cc([C@@](C)(NCC(=O)O)C(=O)N3CCCC3)ccc21 [Free base, (R)-2-(4-Amidinophenylaminomethyl)-1-methyl-5-[1-(carboxymethylamino)-1-(pyrrolidinocarbonyl)-ethyl]-benzimidazole]
2 | no decompo- | no decompo- | (<1%) | high degree of stability | dissolves very easily | Cn1c(CNc2ccc(C(=N)N)cc2)nc2cc([C@@](C)(NCC(=O)O)C(=O)N3CCCC3)ccc21 [monohydrochloride, (R)-2-(4-Amidinophenylaminomethyl)-1-methyl-5-[1-(carboxymethylamino)-1-(pyrrolidinocarbonyl)-ethyl]-benzimidazole-monohydrochloride]
